Experimental data reported in patent US8716438B2, “Matricryptic ECM peptides for tissue reconstruction” (University of Pittsburgh—Of the Commonwealth System of …, priority 2009, dated 2014).

Assays:
[1] = test system: human perivascular stem cells; test: Boyden chamber chemotaxis of human perivascular stem cells; assay type: cell-based; details: Neuro Probe 48-well chamber, 3 hours, varying concentrations
Description: To confirm the chemotactic activity for progenitor cells within ECM degradation products, human perivascular stem cells were assessed in vitro in a Boyden chamber. The peptides IAGVGGEKSGGF (Peptide 1, SEQ ID NO: 1) and GPVGPSGPPGK (Peptide 2, SEQ ID NO: 2) were tested.
Perivascular stem cells were isolated from human muscle and propagated in culture as previously described (Crisan M, Yap S, Casteilla L, et al. A perivascular origin for mesenchymal stem cells in multiple human organs. Cell Stem Cell. 2008; 3:301-313).
Perivascular stem cells were cultured in Dulbecco's Modified Eagle's Medium (DMEM) supplemented with 20% fetal calf serum (FCS), 2 mM glutamine, 100 U/ml penicillin, and 100 μg/ml streptomycin in […] at 37° C.
Cultures at passages 10-12 and 50-70% confluence were starved in serum-free DMEM supplemented with 0.5% heat inactivated (FCS) for 14-17 hours. After starvation, cells were harvested in 0.25% trypsin and 0.53 mM EDTA, centrifuged, and resuspended in DMEM with 0.5% heat inactivated FCS at a concentration of 6×10^5 cells/ml for 1 hour. […] After 3 hours, cells facing the upper chamber on the filter were scraped off, and cells facing the bottom filter were fixed in methanol, stained with 500 nM DAPI (Sigma, D9564), and counted using ImageJ (NIH).

[2] = test system: human perivascular stem cells; test: Human perivascular stem cells osteogenic differentiation; assay type: cell-based
Description: (§1) Source of Cells and Culture Conditions: Human perivascular stem cells were obtained as described above and were cultured in high-glucose Dulbecco's modified Eagle's medium (DMEM, Invitrogen) containing 20% fetal bovine serum (FBS; Thermo), 100 U/mL penicillin, and 100 μg/mL streptomycin (Sigma) at 37° C. in 5% CO2. Human cortical neuroepithelium stem (CTX) cells were cultured in DMEM:F12 supplemented with 0.03% Human albumin solution, 100 μg/ml human Apo-Transferrin, 16.2 μg/ml Putrescine DiHCl, 5 μg/ml Insulin, 60 ng/ml Progesterone, 2 mM L-Glutamine, 40 ng/ml Sodium Selinite, 10 ng/ml human bFGF, 20 ng/ml human Epidermal growth factor, and 100 nM 4-Hydroxytestosterone.
Human Perivascular Stem Cells Osteogenic Differentiation: Confluent perivascular stem cells were cultured in osteogenic differentiation medium (DMEM with 20% FBS, 20 μM ascorbic acid and 1.76 mM β-glycophosphate) and analyzed for the presence of calcium deposits after 4, 7, and 14 days. Calcium deposits were detected via fixation in 10% NBF and staining with 2% Alizarin Red.

[3] = test system: human cortical neuroepithelium stem (CTX) cells; test: CTX cells chemotaxis assay; assay type: cell-based; details: 5 h
Description: as §1
CTX Cells Chemotaxis Assay: CTX cells (human cortical neuroepithelium stem cells) were grown to ˜80% confluence, made into a single cell suspension, and the migration of 3×10^4 cells per well towards peptide 1 was assayed over 5 h. Migrated cells were stained by 4′,6-diamidino-2-phenylindole and quantified with ImageJ (NIH). All of the data are means of quadruplicate determinations with standard deviations. The assay was performed on three separate occasions.

[4] = test system: C57/BL6 mice, amputated third digit; test: Animal model of digit amputation (in vivo bone formation); design: species or system mouse
Description: Animal Model of Digit Amputation: Adult female 6- to 8-week-old C57/BL6 mice (n=4) were subjected to aseptic midsecond phalanx amputation of the third digit on both hind feet. At 0, 24, and 96 h after surgery 15 μL of 10 mM peptide 1 was injected into the footpad below the amputated digit using a 30-gauge needle. A second group of animals (n=4) were treated in the same way except that phosphate buffered saline (PBS) was injected instead of the peptide Animals were killed via cervical dislocation under isoflurane anesthesia at 14 days after surgery. Isolated toes were fixed in 10% neutral buffered formalin (NBF), embedded in paraffin and cut into 5 μm sections, before deparaffinization and staining with Alcian blue at pH 2.5, hematoxylin and eosin (H&E) or Masson's trichrome.

## GPVGPSGPPGK (listed as Sus scrofa) [Peptide 2, 11-mer from porcine Collagen type III alpha 1, found in pepsin-digested UBM, chemically synthesized]
[1]
  Chemotactic activity for progenitor cells: excellent chemotactic activity

## IAGVGGEKSGGF (listed as Sus scrofa) [Peptide 1, 12-mer from porcine Collagen type III alpha 1, found in pepsin-digested UBM, chemically synthesized]
[2]; 100 μM peptide, not seen without peptide
  Bone nodules in standard culture medium: caused the formation of bone nodules
[2]; 1, 10 or 100 μM peptide, vs differentiation medium alone
  Bone nodules in osteogenic differentiation medium: more bone nodules
[3]; all concentrations of peptide, 3×10^4 cells per well
  Migration of CTX cells compared to media without peptide: increased migration
[3]; range of concentrations
  Peptide concentration at which CTX cell migration was highest: 1 µM
[1]
  Chemotactic activity for progenitor cells: excellent chemotactic activity
[4]; 15 μL of 10 mM peptide injected into footpad at 0, 24, 96 h, tissue at 14 days, H&E/trichrome, vs buffer
  In vivo bone formation at the amputated digit: formation of a bone like growth on the side of the amputated digit
[4]; 15 μL of 10 mM peptide into footpad, 14 days, buffer group showed diffuse GAG staining
  Alcian blue staining of sulfated glycosaminoglycans (GAG): concentrated GAG positive staining only at the bone nodule
